Measurements: BindingDB's records for doi:10.1016/j.bmcl.2007.10.036 (Cardiff University, 2007)

Molecular target: MAP kinase-activated protein kinase 2 (Homo sapiens, UniProt P49137)
Assay: Inhibition of MK2 in human TERT immortalised HCA2 cells assessed as inhibition of anisomycin-induced HSP27 phosphorylation at 2.5 uM by ELISA

MAP kinase-activated protein kinase 2, sequence (P49137 whole entry): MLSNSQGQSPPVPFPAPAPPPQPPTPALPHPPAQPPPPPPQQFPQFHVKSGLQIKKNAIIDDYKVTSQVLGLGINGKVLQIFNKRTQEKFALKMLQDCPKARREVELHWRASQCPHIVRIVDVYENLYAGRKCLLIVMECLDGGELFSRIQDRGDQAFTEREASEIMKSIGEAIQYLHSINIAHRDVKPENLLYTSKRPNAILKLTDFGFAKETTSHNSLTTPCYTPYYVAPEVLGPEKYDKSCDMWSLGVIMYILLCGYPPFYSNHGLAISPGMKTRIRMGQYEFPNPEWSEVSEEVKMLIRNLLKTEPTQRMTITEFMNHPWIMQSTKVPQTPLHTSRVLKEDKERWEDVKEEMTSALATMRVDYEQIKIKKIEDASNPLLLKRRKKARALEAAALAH

SMILES: O=C(CCCc1ccc(-c2ccccc2F)cc1)Nc1ccc(O)cc1
- Ki: 330 nM
